# Assay results taken from US9388140B2, “Substituted benzimidazoles” (priority 2011, dated 2016).
# Biological target: human kinase Mps-1 (Homo sapiens (Human), UniProt P33981)
# Assay: Mps-1 kinase assay (TR-FRET)
# Type: biochemical
# Conditions: N-terminally GST-tagged human full length recombinant Mps-1; 10 μM ATP; 1 μM biotinylated peptide substrate; read-out: Mps1 IC50
# Description: The human kinase Mps-1 phosphorylates a biotinylated substrate peptide. Detection of the phosphorylated product is achieved by time-resolved fluorescence resonance energy transfer (TR-FRET) from Europium-labelled anti-phospho-Serine/Threonine antibody as donor to streptavidin labelled with cross-linked allophycocyanin (SA-XLent) as acceptor. Compounds are tested for their inhibition of the kinase activity.
# N-terminally GST-tagged human full length recombinant Mps-1 kinase (purchased from Invitrogen, Karslruhe, Germany, cat. no PV4071) was used. As substrate for the kinase reaction a biotinylated peptide of the amino-acid sequence […] (C-terminus in amide form, purchased from Biosynthan GmbH, Berlin) was used.
# The concentration of Mps-1 in the assay was adjusted to the activity of the enzyme lot and was chosen appropriate to have the assay in the linear range, typical enzyme concentrations were in the range of about 1 nM (final conc. in the 5 μl assay volume).
# The resulting mixture was incubated 1 h at 22° C. to allow the binding of the phosphorylated peptide to the anti-phospho(Ser/Thr)-Europium-antibody. Subsequently the amount of phosphorylated substrate was evaluated by measurement of the resonance energy transfer from the Europium-labelled anti-phospho(Ser/Thr) antibody to the Streptavidin-XLent.
# human kinase Mps-1, sequence (P33981 whole entry): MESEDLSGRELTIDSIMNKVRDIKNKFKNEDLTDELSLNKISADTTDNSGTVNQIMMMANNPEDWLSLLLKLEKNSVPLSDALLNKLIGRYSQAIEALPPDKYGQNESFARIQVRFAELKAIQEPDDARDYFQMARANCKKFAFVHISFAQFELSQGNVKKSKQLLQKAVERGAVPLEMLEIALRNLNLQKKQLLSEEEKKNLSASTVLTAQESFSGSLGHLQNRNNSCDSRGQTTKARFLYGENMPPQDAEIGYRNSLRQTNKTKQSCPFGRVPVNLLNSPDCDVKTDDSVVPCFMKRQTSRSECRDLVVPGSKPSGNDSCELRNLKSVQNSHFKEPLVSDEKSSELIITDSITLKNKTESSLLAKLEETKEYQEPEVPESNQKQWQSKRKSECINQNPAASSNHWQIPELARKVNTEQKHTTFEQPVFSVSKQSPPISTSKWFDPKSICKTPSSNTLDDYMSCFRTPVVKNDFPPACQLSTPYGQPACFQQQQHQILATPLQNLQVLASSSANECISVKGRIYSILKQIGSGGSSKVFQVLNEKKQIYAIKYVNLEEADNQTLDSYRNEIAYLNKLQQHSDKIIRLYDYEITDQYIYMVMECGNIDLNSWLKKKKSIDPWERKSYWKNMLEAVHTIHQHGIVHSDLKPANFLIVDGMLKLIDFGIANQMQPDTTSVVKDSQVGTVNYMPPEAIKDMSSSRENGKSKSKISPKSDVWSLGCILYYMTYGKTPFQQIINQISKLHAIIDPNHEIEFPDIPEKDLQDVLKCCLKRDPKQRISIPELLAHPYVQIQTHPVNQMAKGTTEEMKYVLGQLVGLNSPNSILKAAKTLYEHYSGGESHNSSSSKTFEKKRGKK
row,Compound,IC50
1,"COc1ccc(C(C)(O)c2cc(NCCC(F)(F)F)c3ncn(-c4ccc(C(=O)NC5CC5)c(C)c4)c3c2)cc1F (racemic) [Example 103A, N-cyclopropyl-4-{6-[(1RS)-1-(3-fluoro-4-methoxyphenyl)-1-hydroxyethyl]-4-[(3,3,3-trifluoropropyl)amino]-1H-benzimidazol-1-yl}-2-methylbenzamide]",2.7 nM
2,"COc1ccc(C(C)c2cc(NCCC(F)(F)F)c3ncn(-c4ccc(C(=O)NC5CC5)c(C)c4)c3c2)cc1F (racemic) [Example 105, N-cyclopropyl-4-{6-[(1RS)-1-(3-fluoro-4-methoxyphenyl)ethyl]-4-[(3,3,3-trifluoropropyl)amino]-1H-benzimidazol-1-yl}-2-methylbenzamide]",2.9 nM
3,"Cc1cc(-n2cnc3c(NCCC(F)(F)F)cc(-c4ccncc4)cc32)ccc1C(=O)NC1CC1 [Example 2, N-cyclopropyl-2-methyl-4-{6-(pyridin-4-yl)-4-[(3,3,3-trifluoropropyl)amino]-1H-benzimidazol-1-yl}benzamide]",0.2 nM
4,"Cc1ccc(F)cc1Nc1cc(NCCC(F)(F)F)c2ncn(-c3ccc(C(=O)NC4CC4)c(C)c3)c2c1 [Example 3, N-Cyclopropyl-4-{6-[(5-fluoro-2-methylphenyl)amino]-4-[(3,3,3-trifluoropropyl)amino]-1H-benzimidazol-1-yl}-2-methylbenzamide]",1.5 nM
5,"Cc1cc(-n2cnc3c(NCCC(F)(F)F)cc(Oc4cccc(F)c4)cc32)ccc1C(=O)NC1CC1 [Example 4, N-cyclopropyl-4-{6-(3-fluorophenoxy)-4-[(3,3,3-trifluoropropyl)amino]-1H-benzimidazol-1-yl}-2-methylbenzamide]",0.7 nM
6,"Cc1cc(-n2cnc3c(NCCC(F)(F)F)cc(Nc4cccc(F)c4F)cc32)ccc1C(=O)NC1CC1 [Example 5, N-cyclopropyl-4-{6-[(2,3-difluorophenyl)amino]-4-[(3,3,3-trifluoropropyl)amino]-1H-benzimidazol-1-yl}-2-methylbenzamide]",2.3 nM
7,"CC(C)CNc1cc(Br)cc2c1ncn2-c1ccc(C(=O)NC2CC2)cc1 [Example 6, 4-{6-bromo-4-[(2-methylpropyl)amino]-1H-benzimidazol-1-yl}-N-cyclopropylbenzamide]",16.6 nM
8,"CC(C)CNc1cc(-c2ccc(F)cc2)cc2c1ncn2-c1ccc(C(=O)NC2CC2)cc1 [Example 7, N-cyclopropyl-4-{6-(4-fluorophenyl)-4-[(2-methylpropyl)amino]-1H-benzimidazol-1-yl}benzamide]",1.9 nM
9,"Cc1cc(-n2cnc3c(NCC4CCOCC4)cc(Oc4cccc(F)c4)cc32)ccc1C(=O)NC1CC1 [Example 9, N-cyclopropyl-4-{6-(3-fluorophenoxy)-4-[(tetrahydro-2H-pyran-4-ylmethyl)amino]-1H-benzimidazol-1-yl}-2-methylbenzamide]",0.4 nM
10,"CNC(=O)c1ccc(-n2cnc3c(NCCC(F)(F)F)cc(Oc4cccc(F)c4)cc32)cc1C [Example 10, 4-{6-(3-Fluorophenoxy)-4-[(3,3,3-trifluoropropyl)amino]-1H-benzimidazol-1-yl}-N,2-dimethylbenzamide]",4.7 nM
11,"CCNC(=O)c1ccc(-n2cnc3c(NCCC(F)(F)F)cc(Oc4cccc(F)c4)cc32)cc1C [Example 11, N-ethyl-4-{6-(3-fluorophenoxy)-4-[(3,3,3-trifluoropropyl)amino]-1H-benzimidazol-1-yl}-2-methylbenzamide]",6.6 nM
12,"Cc1cc(-n2cnc3c(NCCC(F)(F)F)cc(Oc4cccc(F)c4)cc32)ccc1C(=O)NC1(C)CC1 [Example 12, 4-{6-(3-Fluorophenoxy)-4-[(3,3,3-trifluoropropyl)amino]-1H-benzimidazol-1-yl}-2-methyl-N-(1-methylcyclopropyl)benzamide]",15.3 nM
13,"Cc1cc(-n2cnc3c(NCCC(F)(F)F)cc(Oc4cccc(F)c4)cc32)ccc1C(=O)NC1(C#N)CC1 [Example 13, N-(1-cyanocyclopropyl)-4-{6-(3-fluorophenoxy)-4-[(3,3,3-trifluoropropyl)amino]-1H-benzimidazol-1-yl}-2-methylbenzamide]",48.7 nM
14,"Cc1cc(-n2cnc3c(NCCC(F)(F)F)cc(Oc4cccc(F)c4F)cc32)ccc1C(=O)NC1CC1 [Example 14, N-cyclopropyl-4-{6-(2,3-difluorophenoxy)-4-[(3,3,3-trifluoropropyl)amino]-1H-benzimidazol-1-yl}-2-methylbenzamide]",0.5 nM
15,"Cc1cc(F)cc(Oc2cc(NCC3CCOCC3)c3ncn(-c4ccc(C(=O)NC5CC5)c(C)c4)c3c2)c1 [Example 15, N-cyclopropyl-4-{6-(3-fluoro-5-methylphenoxy)-4-[(tetrahydro-2H-pyran-4-ylmethyl)amino]-1H-benzimidazol-1-yl}-2-methylbenzamide]",0.6 nM
16,"Cc1ccc(F)cc1Oc1cc(NCC2CCOCC2)c2ncn(-c3ccc(C(=O)NC4CC4)c(C)c3)c2c1 [Example 16, N-cyclopropyl-4-{6-(5-fluoro-2-methylphenoxy)-4-[(tetrahydro-2H-pyran-4-ylmethyl)amino]-1H-benzimidazol-1-yl}-2-methylbenzamide]",0.6 nM
17,"Cc1cc(-n2cnc3c(NCC4CCOCC4)cc(Oc4ccc(F)c(F)c4)cc32)ccc1C(=O)NC1CC1 [Example 17, N-cyclopropyl-4-{6-(3,4-difluorophenoxy)-4-[(tetrahydro-2H-pyran-4-ylmethyl)amino]-1H-benzimidazol-1-yl}-2-methylbenzamide]",1.1 nM
18,"Cc1cc(-n2cnc3c(NCCC(F)(F)F)cc(Oc4ccc(Cl)cc4)cc32)ccc1C(=O)NC1CC1 [Example 18, 4-{6-(4-Chlorophenoxy)-4-[(3,3,3-trifluoropropyl)amino]-1H-benzimidazol-1-yl}-N-cyclopropyl-2-methylbenzamide]",2.4 nM
19,"Cc1ccc(F)cc1Nc1cc(NCC2CCOCC2)c2ncn(-c3ccc(C(=O)NC4CC4)c(C)c3)c2c1 [Example 19, N-cyclopropyl-4-{6-[(5-fluoro-2-methylphenyl)amino]-4-[(tetrahydro-2H-pyran-4-ylmethyl)amino]-1H-benzimidazol-1-yl}-2-methylbenzamide]",1.2 nM
20,"Cc1cc(-n2cnc3c(NCC4CCOCC4)cc(-c4ccccc4CO)cc32)ccc1C(=O)NC1CC1 [Example 20, N-cyclopropyl-4-{6-[2-(hydroxymethyl)phenyl]-4-[(tetrahydro-2H-pyran-4-ylmethyl)amino]-1H-benzimidazol-1-yl}-2-methylbenzamide]",1.5 nM
21,"Cc1cc(-n2cnc3c(NCCC(F)(F)F)cc(-c4ccccc4CO)cc32)ccc1C(=O)NC1CC1 [Example 21, N-cyclopropyl-4-{6-[2-(hydroxymethyl)phenyl]-4-[(3,3,3-trifluoropropyl)amino]-1H-benzimidazol-1-yl}-2-methylbenzamide]",1.8 nM
22,"Cc1cc(-n2cnc3c(NCC4CCOCC4)cc(Oc4ccc(Cl)c(F)c4)cc32)ccc1C(=O)NC1CC1 [Example 22, 4-{6-(4-Chloro-3-fluorophenoxy)-4-[(tetrahydro-2H-pyran-4-ylmethyl)amino]-1H-benzimidazol-1-yl}-N-cyclopropyl-2-methylbenzamide]",2.7 nM
23,"Cc1cc(-n2cnc3c(NCC4CCOCC4)cc(Oc4ccc(Cl)cc4)cc32)ccc1C(=O)NC1CC1 [Example 23, 4-{6-(4-Chlorophenoxy)-4-[(tetrahydro-2H-pyran-4-ylmethyl)amino]-1H-benzimidazol-1-yl}-N-cyclopropyl-2-methylbenzamide]",2.2 nM
24,"Cc1cc(-n2cnc3c(NCC4CCOCC4)cc(Oc4cccc(F)c4F)cc32)ccc1C(=O)NC1CC1 [Example 25, N-cyclopropyl-4-{6-(2,3-difluorophenoxy)-4-[(tetrahydro-2H-pyran-4-ylmethyl)amino]-1H-benzimidazol-1-yl}-2-methylbenzamide]",0.2 nM
25,"Cc1cc(F)cc(Oc2cc(NCCC(F)(F)F)c3ncn(-c4ccc(C(=O)NC5CC5)c(C)c4)c3c2)c1 [Example 26, N-cyclopropyl-4-{6-(3-fluoro-5-methylphenoxy)-4-[(3,3,3-trifluoropropyl)amino]-1H-benzimidazol-1-yl}-2-methylbenzamide]",1.8 nM
26,"Cc1cc(-n2cnc3c(NCCC(F)(F)F)cc(Oc4ccc(F)c(F)c4)cc32)ccc1C(=O)NC1CC1 [Example 27, N-cyclopropyl-4-{6-(3,4-difluorophenoxy)-4-[(3,3,3-trifluoropropyl)amino]-1H-benzimidazol-1-yl}-2-methylbenzamide]",1.4 nM
27,"Cc1cc(-n2cnc3c(NCCC(F)(F)F)cc(Oc4ccc(Cl)c(F)c4)cc32)ccc1C(=O)NC1CC1 [Example 28, 4-{6-(4-Chloro-3-fluorophenoxy)-4-[(3,3,3-trifluoropropyl)amino]-1H-benzimidazol-1-yl}-N-cyclopropyl-2-methylbenzamide]",3.1 nM
28,"COc1ccc(Oc2cc(NCCC(F)(F)F)c3ncn(-c4ccc(C(=O)NC5CC5)c(C)c4)c3c2)c(F)c1 [Example 29, N-cyclopropyl-4-{6-(2-fluoro-4-methoxyphenoxy)-4-[(3,3,3-trifluoropropyl)amino]-1H-benzimidazol-1-yl}-2-methylbenzamide]",0.9 nM
29,"Cc1cc(-n2cnc3c(NCCC(F)(F)F)cc(-c4ccnn4C)cc32)ccc1C(=O)NC1CC1 [Example 30, N-cyclopropyl-2-methyl-4-{6-(1-methyl-1H-pyrazol-5-yl)-4-[(3,3,3-trifluoropropyl)amino]-1H-benzimidazol-1-yl}benzamide]",4.8 nM
